Columns and labels:
[1] = tested on: BDNF mRNA in C2C12 cell-derived myotube cells; experiment: BDNF gene expression promoting effect-1: BDNF mRNA by real-time PCR in C2C12 cell-derived myotube cells; assay type: cell-based, mouse; details: 1 mM, 4 hours, corrected to β-actin mRNA, vs control without test substance, Dunnett's test, n=3
Protocol: Mouse myoblast cell line C2C12 cells (RIKEN BRC, RCB0987) were suspended in a growth medium (DMEM containing 10% FBS and antibiotics), seeded in a 24-well plate, and cultured in an incubator at 37° C. and 5% CO2 until the cell density reached 70-90%. The growth medium was removed and replaced with a differentiation induction medium (DMEM containing 2% horse serum and antibiotics). After culturing it for 6 days while changing the medium once every 2 days, cytidylic acid (CMP) or uridylic acid (UMP) was added to a final concentration of 1 mM and cultured for 4 hours. The medium was removed, and the total RNA was extracted from the cells using NucleoSpin® RNA (TAKARA BIO INC).
Using the total RNA as a template, a reverse transcription reaction solution was prepared using ReverTra Ace® qPCR RT Kit (TOYOBO). The reverse transcription reaction solution, GoTaq qPCR Master Mix (Promega), and a real-time PCR device Thermal Cycler Dice® Real Time System (TAKARA BIO INC) were used to measure amounts of mRNAs of BDNF and β-actin as an internal standard. Analysis was performed by relative quantification, and the amount of the mRNA was corrected using the amount of mRNA of β-actin as an endogenous control.
The threshold of statistical significance was set at 5%. In addition, unless otherwise specified, including the following Examples, each sample was examined at n=3.

[2] = tested on: BDNF protein in PC-12 cells; experiment: BDNF protein by Rat BDNF ELISA in PC-12 cell lysate; assay type: cell-based; details: 200 µM, 24 hours, t-test vs control, n=3
Protocol: PC-12 cells were suspended in DMEM containing 20% FBS and antibiotics, seeded on a collagen-coated 24-well plate at a density of 2.4×10^5 cells/well, and cultured in an incubator at 37° C. and 5% CO2 for 18 hours. Uridine was added to a final concentration of 200 µM, and cultured for 24 hours. The medium was removed by suction, and 100 μl of RIPA buffer (50 mM Tris-HCl (pH 7.6), 150 mM NaCl, 1% NP-40, 0.5% sodium deoxycholate, 1% SDS) containing 1% protease inhibitor cocktail (nacalai tesque) was added, and the cells were disrupted by pipetting and ultrasonication. The amount of BDNF in the cell lysate was measured using a Rat BDNF ELISA Kit (RayBiotech). The amount of protein in the cell lysate was measured using a Micro BCA™ Protein Assay Kit (Thermo Fisher Scientific), and the amount of BDNF per total protein mass was calculated. […] The threshold for statistical significance was set at 5%.

[3] = tested on: BDNF mRNA in PC-12 cells; experiment: BDNF gene expression promoting effect-3: BDNF mRNA by real-time PCR in PC-12 cells (uridine); assay type: cell-based, rat; details: 200 μM, 1 hour, n=3
Protocol: PC-12 cells were suspended in DMEM containing 5% FBS (fetal bovine serum), 10% horse serum, and antibiotics (100 units/ml of penicillin, 100 μg/ml of streptomycin), seeded on a collagen-coated 24-well plate at a density of 2.4×10^5 cells/well, and cultured in an incubator at 37° C. and 5% CO2 for 18 hours. Uridine, a precursor of uridylic acid, was added to a final concentration of 200 μM, and cultured for 1 hour. Subsequently, mRNA was extracted, and the amount of mRNA of BDNF was evaluated by reverse transcription and real-time PCR analysis in the same procedure as that of Example 1.

[4] = tested on: BDNF mRNA in PC-12 cells; experiment: BDNF gene expression promoting effect-2: BDNF mRNA by real-time PCR in PC-12 cells (uridylic acid); assay type: cell-based, rat; details: 500 µM, 4 hours, n=3
Protocol: Rat adrenal medulla brown tumor-derived cells (PC-12 cells, JCRB0733), used as nervous system model cells, were suspended in DMEM containing 20% FBS and antibiotics, seeded on a collagen-coated 24-well plate at a density of 2.4×10^5 cells/well, and cultured in an incubator at 37° C. and 5% CO2 for 18 hours. Uridylic acid (UMP) was added to a final concentration of 500 µM, and cultured for 4 hours.
Subsequently, mRNA was extracted and an amount of mRNA of BDNF was evaluated by reverse transcription and real-time PCR analysis in the same procedure as that of Example 1.

| Compound | amount of mRNA of BDNF [1] | amount of BDNF per total protein mass [2] | amount of mRNA of BDNF [3] | amount of mRNA of BDNF [4] |
| --- | --- | --- | --- | --- |
| Nc1ccn([C@@H]2O[C@H](COP(=O)(O)O)[C@@H](O)[C@H]2O)c(=O)n1 [cytidylic acid] | significantly increased | – | – | – |
| O=c1ccn([C@@H]2O[C@H](CO)[C@@H](O)[C@H]2O)c(=O)[nH]1 [uridine] | – | significantly increased | significantly increased | – |
| O=c1ccn([C@@H]2O[C@H](COP(=O)(O)O)[C@@H](O)[C@H]2O)c(=O)[nH]1 [uridylic acid] | significantly increased | – | – | significantly increased |

— patent publication US20250041323A1, “BDNF PRODUCTION PROMOTER” (YAMASA CORPORATION, priority 2022, published 2025)
